Source: paper PMC5566834 (2017)

System: Rd 13 (DNA, aptamer) CGGGGGGAGGCGGAGGGAGGACTGGGGCTTCATTGACGTTCTTCACAGTAGGGGTAAGGGCTTAGGTGGTTGGTGCCTG
Test: competitive fluorescence anisotropy
Details: 140 mM Na+, 2 mM K+, 5 mM Mg2+, 2 mM Ca2+; 20 mM Tris pH 7.4; PosBD displaced; 1,000 pmol drug in 125 μl; less than posaconazole

For `OC(Cn1cncn1)(Cn1cncn1)c1ccc(F)cc1F`, the binding was “weak”.
